Data as given in patent US20230203060A1 (GENFLEET THERAPEUTICS (SHANGHAI) INC., priority 2020, published 2023).
Structures can show the parent of a compound that is named as a salt.

Legend:
[1] = tested on: KRAS G12C mutant NCI-H358 cells; assay: Cell proliferation inhibition experiment, 3D spheroid, CellTiter-Glo, NCI-H358; type: cell-based, human; conditions: Homo sapiens, NCI-H358, 120 h, NCI-H358 (KRAS G12C mutant) 3D spheroid, 5 days with compound, CellTiter-Glo; read-out: H358 IC50
In short: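 3D spheroid format; 800 H358 / 400 A549 cells/well, 2% FBS. Cpd 3.16-fold series, 0.1% DMSO, 5 d. Readout CellTiter-Glo luminescence; IR% vs DMSO control and medium blank; 4-parameter IC50.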

[2] = tested on: KRAS G12C mutant MIA PaCa-2 cells; assay: Cell proliferation inhibition experiment, 3D spheroid, CellTiter-Glo, MIA PaCa-2; type: cell-based, human; conditions: Homo sapiens, MIA PaCa-2, 120 h, 3D cell model in 384-well spheroid plate, 5 days, CellTiter-Glo; read-out: MIA-PaCa2 IC50
In short: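 Luminescent ATP read-out (CellTiter-Glo) after 5-day compound treatment of spheroids formed overnight from 200 MIA PaCa-2 cells/well; compounds in 3.16-fold series, 0.1% DMSO final. IC50 derived by four-parameter fit of percent inhibition, normalized to DMSO control and medium blank.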

Row | IC50 [1] [nM] | IC50 [2] [nM] | Compound
1 | 18.4 | 30.7 | C=CC(=O)N1CCN2C(=O)c3c(N4Cc5cn(C)nc5[C@H]4C)nc(-c4c(O)cccc4F)c(Cl)c3OC[C@H]2C1 (single isomer, unassigned) [Z291-1S, trifluoroacetate]
2 | 8.3 | 17.6 | C=CC(=O)N1CCN2C(=O)c3c(N4C[C@@H](OC)C[C@@H]4C)nc(-c4c(O)cccc4F)c(F)c3OC[C@H]2C1 [Z359-1, (6aR)-8-actyloyl-4-fluoro-3-(2-fluoro-6-hydroxyphenyl)-1-((2S,4S)-4-methoxy-2-methylpyrrolidin-1-yl)-6,6a,7,8,9,10-hexahydro-12H-pyrazino[2,1-c]pyrido[3,4-f][1,4]oxazepin-12-one]
3 | 6 | 9 | C=CC(=O)N1CCN2C(=O)c3c(N4CC[C@@H](OC)[C@@H]4C)nc(-c4c(O)cccc4F)c(Cl)c3OC[C@H]2C1 [Z338-1, (6aR)-8-acryloyl-4-chloro-3-(2-fluoro-6-hydroxyphenyl)-1-((2S,3R)-3-methoxy-2-methylpyrrolidin-1-yl)-6,6a,7,8,9,10-hexahydro-12H-pyrazino[2,1-c]pyrido[3,4-f][1,4]oxazepin-12-one]
4 | 9 | 11 | C=CC(=O)N1CCN2C(=O)c3c(N4CCC(N(C)C)C4(C)C)nc(-c4c(O)cccc4F)c(Cl)c3OC[C@H]2C1 (stereo partly drawn) [Z334, (6aR)-8-acryloyl-4-chloro-1-(3-(dimethylamino)-2,2-dimethylpyrrolidin-1-yl)-3-(2-fluoro-6-hydroxyphenyl)-6,6a,7,8,9,10-hexahydro-12H-pyrazino[2,1-c]pyrido[3,4-f][1,4]oxazepin-12-one]
5 | 10 | 15 | C=CC(=O)N1CCN2C(=O)c3c(Nc4c(C(C)C)ncnc4C(C)C)nc(-c4c(O)cccc4F)c(Cl)c3OC[C@H]2C1 [Z15, (6aR)-8-acryloyl-4-chloro-1-((4,6-diisopropylpyrimidin-5-yl)amino)-3-(2-fluoro-6-hydroxyphenyl)-6,6a,7,8,9,10-hexahydro-12H-pyrazino[2,1-c]pyrido[3,4-f][1,4]oxazepin-12-one]
6 | 3.5 | 7 | C=CC(=O)N1CCN2C(=O)c3c(N4Cc5cn(C)nc5C4C)nc(-c4c(O)cccc4F)c(Cl)c3OC[C@H]2C1 (stereo partly shown) [Z291-2]
7 | 18 | 37.4 | C=CC(=O)N1CCN2C(=O)c3c(N4CCN(C)C5(CC5)C4)nc(-c4c(O)cccc4F)c(Cl)c3OC[C@H]2C1 [Z83, (6aR)-8-acryloyl-4-chloro-3-(2-fluoro-6-hydroxyphenyl)-1-(4-methyl-4,7-diazaspiro[2 .5]octan-7-yl)-6,6a,7,8,9,10-hexahydro-12H-pyrazino[2,1-c]pyrido[3,4-f][1,4]oxazepin-12 (6aH)-one]
8 | 4 | 7.1 | C=CC(=O)N1CCN2C(=O)c3c(N4CC[C@@H](OC)C4(C)C)nc(-c4c(O)cccc4F)c(F)c3OC[C@H]2C1 (single isomer, unassigned) [Z327-1]
9 | 1.3 | 2.4 | C=CC(=O)N1CCN2C(=O)c3c(N4C[C@@H](N(C)C)CC4(C)C)nc(-c4c(O)cccc4F)c(Cl)c3OC[C@H]2C1 (single isomer, unassigned) [Z324-1]
10 | 4 | 8 | C=CC(=O)N1CCN2C(=O)c3c(N(C)c4c(C(C)C)ncnc4C(C)C)nc(-c4c(O)cccc4F)c(Cl)c3OC[C@H]2C1 [Z20, (6aR)-8-acryloyl-4-chloro-1-((4,6-diisopropylpyrimidin-5-yl)(methyl)amino)-3-(2-fluoro-6-hydroxyphenyl)-6,6a,7,8,9,10-hexahydro-12H-pyrazino[2,1-c]pyrido[3,4-f][1,4]oxazepin-12-one]
11 | 2.2 | 4.2 | C=CC(=O)N1CCN2C(=O)c3c(N4CC(C)(O)CC4(C)C)nc(-c4c(O)cccc4F)c(Cl)c3OC[C@H]2C1 (stereo partly drawn) [Z243, (6aR)-8-acryloyl-4-chloro-3-(2-fluoro-6-hydroxyphenyl)-1-(4-hydroxy-2,2,4-trimethylpyrrolidin-1-yl)-6,6a,7,8,9,10-hexahydro-12H-pyrazino[2,1-c]pyrido[3,4-f][1,4]oxazepin-12-one]
12 | 1.9 | 8 | C=CC(=O)N1CCN2C(=O)c3c(N4C[C@@H](OC)CC4(C)C)nc(-c4c(O)cccc4F)c(Cl)c3OC[C@H]2C1 (single isomer, unassigned) [Z244-1]
13 | 1 | 3 | C=CC(=O)N1CCN2C(=O)c3c(N4C[C@@H](N5CCOCC5)CC4(C)C)nc(-c4c(O)cccc4F)c(Cl)c3OC[C@H]2C1 (single isomer, unassigned) [Z297-2]
14 | 6 | 9.9 | C=CC(=O)N1CCN2C(=O)c3c(N4CCOCC4)nc(-c4nc(N)cc(C)c4C(F)(F)F)c(Cl)c3OC[C@H]2C1 [Z314]
15 | 1.4 | 4.3 | C=CC(=O)N1CCN2C(=O)c3c(N4CC[C@H](OC)C4(C)C)nc(-c4c(O)cccc4F)c(Cl)c3OC[C@H]2C1 (single isomer, unassigned) [Z241a-1]
16 | 2.2 | 1.7 | C=CC(=O)N1CCN2C(=O)c3c(N4CCN(C)C[C@@H]4C)nc(-c4nc(N)cc(C)c4C(F)(F)F)c(Cl)c3OC[C@H]2C1 [Z328-1, (R)-8-acryloyl-3-(6-amino-4-methyl-3-(trifluoromethyl)pyridin-2-yl)-4-chloro-1-((S)-2,4-dimethylpiperazin-1-yl)-6,6a,7,8,9,10-hexahydro-12H-pyrazino[2,1-c]pyrido[3,4-f][1,4]oxazepin-12-one]
17 | 2.8 | 6.2 | C=CC(=O)N1CCN2C(=O)c3c(N4C[C@@](C)(O)CC4(C)C)nc(-c4c(O)cccc4F)c(F)c3OC[C@H]2C1 (single isomer, unassigned) [Z256b-1]
18 | 0.7 | 1.5 | C=CC(=O)N1CCN2C(=O)c3c(N4CC[C@@H](OC)C4(C)C)nc(-c4c(O)cccc4F)c(Cl)c3OC[C@H]2C1 (single isomer, unassigned) [Z241a-2]
19 | 3.8 | 4.9 | C=CC(=O)N1CCN2C(=O)c3c(N4CCC[C@@]4(C)CO)nc(-c4c(O)cccc4F)c(Cl)c3OC[C@H]2C1 [Z279-2]
20 | 1.3 | 2.2 | C=CC(=O)N1CCN2C(=O)c3c(N4CCN(C(=O)CC)C[C@@H]4C)nc(-c4c(O)cccc4F)c(Cl)c3OC[C@H]2C1 [Z316-1, (6aR)-8-acryloyl-4-chloro-3-(2-fluoro-6-hydroxyphenyl)-1-((S)-2-methyl-4-propionylpiperazin-1-yl)-6,6a,7,8,9,10-hexahydro-12H-pyrazino[2,1-c]pyrido[3,4-f][1,4]oxazepin-12-one]
21 | 26 | 30 | C=CC(=O)N1CCN2C(=O)c3c(N4CCO[C@](C)(CO)C4)nc(-c4c(O)cccc4F)c(Cl)c3OC[C@H]2C1 (single isomer, unassigned) [Z333-1]
22 | 3 | 6 | C=CC(=O)N1CCN2C(=O)c3c(N4CC[C@H](N(C)C)C4(C)C)nc(-c4c(O)cccc4F)c(Cl)c3OC[C@H]2C1 (single isomer, unassigned) [Z360-2]
23 | 4 | 9 | C=CC(=O)N1CCN2C(=O)c3c(N4CCN(CCOC)C[C@@H]4C)nc(-c4c(O)cccc4F)c(Cl)c3OC[C@H]2C1 [Z257a, (6aR)-8-acryloyl-4-chloro-3-(2-fluoro-6-hydroxyphenyl)-1-((S)-4-(2-methoxyethyl)-2-methylpiperazin-1-yl)-6,6a,7,8,9,10-hexahydro-12H-pyrazino[2,1-c]pyrido[3,4-f][1,4]oxazepin-12-one]
24 | 16 | 17 | C=CC(=O)N1CCN2C(=O)c3c(N4CCO[C@](C)(COC)C4)nc(-c4c(O)cccc4F)c(Cl)c3OC[C@H]2C1 (single isomer, unassigned) [Z332-1]
25 | 8 | 24 | C=CC(=O)N1CCN2C(=O)c3c(N4C[C@@H](O)CC4(C)C)nc(-c4c(F)ccc(Cl)c4O)c(F)c3OC[C@H]2C1 (single isomer, unassigned) [Z341-1]
26 | 11.8 | 17 | C=CC(=O)N1CCN2C(=O)c3c(N4Cc5nn(C)cc5[C@@H]4C)nc(-c4c(O)cccc4F)c(Cl)c3OC[C@H]2C1 (single isomer, unassigned) [Z345-2]
27 | 10.6 | 26 | C=CC(=O)N1CCN2C(=O)c3c(N4Cc5cn(C)nc5C4(C)C)nc(-c4c(O)cccc4F)c(Cl)c3OC[C@H]2C1 [Z310, (6aR)-8-acryloyl-1-(2,6,6-trimethylpyrrolo[3,4-c]pyrazol-5(2H,4H,6H)-yl)-4-chloro-3-(2-fluoro-6-hydroxyphenyl)-6,6a,7,8,9,10-hexahydro-12H-pyrazino[2,1-c]pyrido[3,4-f][1,4]oxazepin-12-one]
28 | 4.5 | 6.3 | C=CC(=O)N1CCN2C(=O)c3c(N4CCN(CC)C(C)(C)C4)nc(-c4c(O)cccc4F)c(Cl)c3OC[C@H]2C1 [Z322, (6aR)-8-actyloyl-4-chloro-3-(2-fluoro-6-hydroxyphenyl)-1-(4-ethyl-3,3-dimethylpiperazin-1-yl)-6,6a,7,8,9,10-hexahydro-12H-pyrazino[2,1-c]pyrido[3,4-f][1,4]oxazepin-12-one]
29 | 1.3 | 1.7 | C=CC(=O)N1CCN2C(=O)c3c(N4CCN(C(=O)C5CC5)C[C@@H]4C)nc(-c4c(O)cccc4F)c(Cl)c3OC[C@H]2C1 [Z320-1, (6aR)-8-acryloyl-4-chloro-1-((S)-4-(cyclopropanecarbonyl)-2-methylpiperazin-1-yl)-3-(2-fluoro-6-hydroxyphenyl)-6,6a,7,8,9,10-hexahydro-12H-pyrazino[2,1-c]pyrido[3,4-f][1,4]oxazepin-12-one]
